# Test results: US12024716B2, “Compositions and methods of expansion of T cell populations” (THE BOARD OF TRUSTEES OF THE LELAND STANFORD JUNIOR …, priority 2018, dated 2024)
# Where two headings read alike, the source gives them in different places.
# How the values were obtained:
# [1] = tested on: human naïve CFSE+ CD8+ T cells; conditions: for CFSE^+ CD8^+ T cells (%)^*: live and non-apoptotic gates not applied
# Source text: Peripheral blood mononuclear cells (PBMCs) were isolated from Trima Accel leukocyte reduction system (LRS) chambers (Terumo BCT, Lakewood, CO) of de-identified healthy blood donors (Stanford Blood Center, Palo Alto, CA) using Ficoll-Paque Plus (GE Healthcare, Chicago, IL, USA) density gradient centrifugation according to manufacturer's instructions. For long-term storage, PBMCs were resuspended in FBS with 10% DMSO and stored in liquid nitrogen at density 1-5×10^7 cells/mL. Cryopreserved PBMCs were thawed into cell culture medium (CCM; RPMI 1640 containing 10% FBS, 1× L-glutamine, and 1× penicillin/streptomycin; Thermo Fisher Scientific Waltham, MA, USA) supplemented with 25 U/mL benzonase (SIGMA-ALDRICH®, St. Louis, MO, USA). Cells were then pelleted for 5 minutes at 250×g, resuspended in 10 mL CCM, rested at 37° C., 5% CO2 for 60 minutes, filtered through a 40 μm strainer, and counted. Where indicated, naïve T cells were enriched using Naïve Pan T Cell Isolation Kit (Miltenyi Biotec #130-097-095, Bergisch Gladbach, Germany) according to manufacturer's instructions.
# Unless otherwise noted, carboxyfluorescein succinimidyl ester (CFSE) labeling was performed as described by Quah and Parish16, 17. Briefly, 50 μg carboxyfluorescein diacetate succinimidyl ester (CFDA-SE) was reconstituted in 18 μL DMSO (CellTrace CFSE Cell Proliferation Kit, Thermo Fisher Scientific #C34554) to create a 5 mM stock immediately prior to labeling. Cells were resuspended in 1 mL warm CCM and transferred into a new 15 mL Falcon tube lying horizontally. A drop containing 110 μL warm PBS was placed on a side of the tube, and 17.6 μL of 5 mM CFDA-SE was diluted into the drop. The tube was then quickly capped and turned upside right while being vortexed gently, yielding a final concentration of 80 μM CFDA-SE. Cells were incubated for 5 minutes at room temperature, quenched by adding 9 mL warm CCM, and washed twice with 10 mL warm CCM. When only naïve T cells were labeled with CFSE, they were combined with the CFSE-negative PBMC fraction devoid of naïve T cells after labeling to restore original cell proportions. All centrifuging steps for live cells were done for 5 minutes at 250 g, 37° C. CFSE and labeled cells were protected from light throughout the experiment. During protocol optimization, the above labeling protocol for 0.1-10×10^7 cells and CFSE concentrations in range of 0.2 μM to 320 μM was tested. Long-term cell viability and proliferation were assessed. Manufacturer's labeling protocol for CFSE concentrations 0.2 μM to 20 μM, as well as other CFSE suppliers (BIOLEGEND® #422701, San Diego, CA, USA) were also tested.
# Samples were processed as previously known in the art. To stain cells for viability, cisplatin (SIGMA-ALDRICH® #P4394) was reconstituted to 100 mM in DMSO and incubated at 37° C. for 3 days to prepare a stock solution, which was then stored in aliquots at −20° C. Cell pellets were resuspended in 1 mL PBS containing 0.5 μM cisplatin, gently vortexed, incubated 5 minutes at room temperature, quenched with 3 mL CCM, pelleted, and resuspended in 1 mL CCM. […] All centrifuging steps for fixed cells were done for 5 minutes at 600×g, 4° C. Cell pellets were optionally stored at −80° C.
# (§1) Mass cytometry data were normalized and debarcoded.
# [2] = tested on: pRPS6; conditions: gated on CFSE+CD8+ T cells
# Source text: as §1
# [3] = tested on: human naïve CFSE+ CD8+ T cells; assay: Naïve CD8+ T-cell differentiation in REP: skewing between TSCM-like and dysfunctional phenotype (mass cytometry, force-directed graph, DPT); conditions: for CD45RA^Low CD25^High (%) / CD45RA^High CD25^Low (%): gated on CFSE^+CD8^+T cells; for CD45RA^Low CD25^High (%): path toward dysfunctional phenotype; for CD45RA^High CD25^Low (%): path towards TSCM-like phenotype; for CD45RA High CD25 Low (%) / CD45RA Low CD25 High (%): gated on CFSE+CD8+ T cells
# [4] = REP day 3, among CD45RA^High CD25^Low CFSE^+CD8^+T cells
# [5] = REP day 3, among CD45RA^Low CD25^High CFSE^+CD8^+T cells
# [6] = REP day 4, among CD45RA^High CD25^Low CFSE^+CD8^+T cells
# [7] = REP day 4, among CD45RA^Low CD25^High CFSE^+CD8^+T cells
# [8] = REP day 5, among CD45RA^High CD25^Low CFSE^+CD8^+T cells
# [9] = REP day 5, among CD45RA^Low CD25^High CFSE^+CD8^+T cells
# [10] = REP day 7, among CD45RA^High CD25^Low CFSE^+CD8^+T cells
# [11] = REP day 7, among CD45RA^Low CD25^High CFSE^+CD8^+T cells
# [12] = in CD45RA High CD25 Low subset of CFSE+CD8+ T cells, REP day 3
# [13] = in CD45RA High CD25 Low subset of CFSE+CD8+ T cells, REP day 4
# [14] = in CD45RA High CD25 Low subset of CFSE+CD8+ T cells, REP day 5
# [15] = in CD45RA High CD25 Low subset of CFSE+CD8+ T cells, REP day 7
# [16] = in CD45RA Low CD25 High subset of CFSE+CD8+ T cells, REP day 3
# [17] = in CD45RA Low CD25 High subset of CFSE+CD8+ T cells, REP day 4
# [18] = in CD45RA Low CD25 High subset of CFSE+CD8+ T cells, REP day 5
# [19] = in CD45RA Low CD25 High subset of CFSE+CD8+ T cells, REP day 7
compound,measurement,setting,value
"CO[C@H]1C[C@@H]2CC[C@@H](C)[C@@](O)(O2)C(=O)C(=O)N2CCCC[C@H]2C(=O)O[C@H]([C@H](C)C[C@@H]2CC[C@@H](O)[C@H](OC)C2)CC(=O)[C@H](C)/C=C(\C)[C@@H](O)[C@@H](OC)C(=O)[C@H](C)C[C@H](C)/C=C/C=C/C=C/1C [Rapamycin, rapamycin]",Apoptotic cells (% cPARP+ cells in CFSE+ CD8+ T cells),[1]; REP day 3,0.43%
same,Apoptotic cells (% cPARP^+ cells in CFSE^+ CD8^+T cells),[1]; REP day 3,0.43%
same,CFSE+ CD8+ T cells (%),[1]; REP day 3,2.14%
same,Dead cells (1% cisplatin+ cells in CFSE+ CD8+ T cells),[1]; REP day 3,0.26%
same,Dead cells (1% cisplatin^+ cells in CFSE^+ CD8^+ T cells),[1]; REP day 3,0.26%
same,Total CFSE+ CD8+ T cells,[1]; REP day 3,0.14
same,Total CFSE^+ CD8^+ T cells,[1]; REP day 3,0.14
same,Total cells (×10^6),[1]; REP day 3,6.48 ×10^6
same,Apoptotic Cell (%),[1]; [4],0.53%
same,Dead cells (%),[1]; [4],0.00%
same,Apoptotic Cells (%),[1]; [5],0.31%
same,Dead cells (%),[1]; [5],0.63%
same,CFSE^+ CD8^+ T cells (%)^*,[1]; REP day 3,2.14%
same,Apoptotic cells (% cPARP+ cells in CFSE+ CD8+ T cells),[1]; REP day 4,0.85%
same,Apoptotic cells (% cPARP^+ cells in CFSE^+ CD8^+T cells),[1]; REP day 4,0.85%
same,CFSE+ CD8+ T cells (%),[1]; REP day 4,3.07%
same,Dead cells (1% cisplatin+ cells in CFSE+ CD8+ T cells),[1]; REP day 4,0.38%
same,Dead cells (1% cisplatin^+ cells in CFSE^+ CD8^+ T cells),[1]; REP day 4,0.38%
same,Total CFSE+ CD8+ T cells,[1]; REP day 4,0.31
same,Total CFSE^+ CD8^+ T cells,[1]; REP day 4,0.31
same,Total cells (×10^6),[1]; REP day 4,9.96 ×10^6
same,Apoptotic Cell (%),[1]; [6],0.59%
same,Dead cells (%),[1]; [6],0.39%
same,Apoptotic Cells (%),[1]; [7],0.84%
same,Dead cells (%),[1]; [7],0.21%
same,CFSE^+ CD8^+ T cells (%)^*,[1]; REP day 4,3.07%
same,Apoptotic cells (% cPARP+ cells in CFSE+ CD8+ T cells),[1]; REP day 5,1.07%
same,Apoptotic cells (% cPARP^+ cells in CFSE^+ CD8^+T cells),[1]; REP day 5,1.07%
same,CFSE+ CD8+ T cells (%),[1]; REP day 5,5.14%
same,Dead cells (1% cisplatin+ cells in CFSE+ CD8+ T cells),[1]; REP day 5,0.21%
same,Dead cells (1% cisplatin^+ cells in CFSE^+ CD8^+ T cells),[1]; REP day 5,0.21%
same,Total CFSE+ CD8+ T cells,[1]; REP day 5,0.71
same,Total CFSE^+ CD8^+ T cells,[1]; REP day 5,0.71
same,Total cells (×10^6),[1]; REP day 5,13.91 ×10^6
same,Apoptotic Cell (%),[1]; [8],2.33%
same,Dead cells (%),[1]; [8],0.00%
same,Apoptotic Cells (%),[1]; [9],0.79%
same,Dead cells (%),[1]; [9],0.24%
same,CFSE^+ CD8^+ T cells (%)^*,[1]; REP day 5,5.14%
same,Apoptotic cells (% cPARP+ cells in CFSE+ CD8+ T cells),[1]; REP day 7,2.16%
same,Apoptotic cells (% cPARP^+ cells in CFSE^+ CD8^+T cells),[1]; REP day 7,2.16%
same,CFSE+ CD8+ T cells (%),[1]; REP day 7,6.49%
same,Dead cells (1% cisplatin+ cells in CFSE+ CD8+ T cells),[1]; REP day 7,1.13%
same,Dead cells (1% cisplatin^+ cells in CFSE^+ CD8^+ T cells),[1]; REP day 7,1.13%
same,Total CFSE+ CD8+ T cells,[1]; REP day 7,1.82
same,Total CFSE^+ CD8^+ T cells,[1]; REP day 7,1.82
same,Total cells (×10^6),[1]; REP day 7,28.03 ×10^6
same,Apoptotic Cell (%),[1]; [10],3.47%
same,Dead cells (%),[1]; [10],0.69%
same,Apoptotic Cells (%),[1]; [11],1.15%
same,Dead cells (%),[1]; [11],0.72%
same,CFSE^+ CD8^+ T cells (%)^*,[1]; REP day 7,6.49%
same,Apoptotic Cell (%),[1]; [12],0.53%
same,Dead cells (%),[1]; [12],0.00%
same,Apoptotic Cell (%),[1]; [13],0.59%
same,Dead cells (%),[1]; [13],0.39%
same,Apoptotic Cell (%),[1]; [14],2.33%
same,Dead cells (%),[1]; [14],0.00%
same,Apoptotic Cell (%),[1]; [15],3.47%
same,Dead cells (%),[1]; [15],0.69%
same,Apoptotic Cells (%),[1]; [16],0.31%
same,Dead cells (%),[1]; [16],0.63%
same,Apoptotic Cells (%),[1]; [17],0.84%
same,Dead cells (%),[1]; [17],0.21%
same,Apoptotic Cells (%),[1]; [18],0.79%
same,Dead cells (%),[1]; [18],0.24%
same,Apoptotic Cells (%),[1]; [19],1.15%
same,Dead cells (%),[1]; [19],0.72%
same,"pRPS6+ (%) (first column, c2)",[2]; REP day 3,99.49%
same,"pRPS6+ (%) (second column, c5)",[2]; REP day 3,0.51%
same,"pRPS6+ (%) (first column, c2)",[2]; REP day 4,99.15%
same,"pRPS6+ (%) (second column, c5)",[2]; REP day 4,0.85%
same,"pRPS6+ (%) (first column, c2)",[2]; REP day 5,99.28%
same,"pRPS6+ (%) (second column, c5)",[2]; REP day 5,0.72%
same,"pRPS6+ (%) (first column, c2)",[2]; REP day 7,99.44%
same,"pRPS6+ (%) (second column, c5)",[2]; REP day 7,0.56%
same,CD45RA^Low CD25^High (%),[3]; REP day 3,27.34%
same,CD45RA^High CD25^Low (%),[3]; REP day 3,16.11%
same,CD45RA^Low CD25^High (%),[3]; REP day 4,30.19%
same,CD45RA^High CD25^Low (%),[3]; REP day 4,16.03%
same,CD45RA^Low CD25^High (%),[3]; REP day 5,43.80%
same,CD45RA^High CD25^Low (%),[3]; REP day 5,8.87%
same,CD45RA^Low CD25^High (%),[3]; REP day 7,21.79%
same,CD45RA^High CD25^Low (%),[3]; REP day 7,9.00%
same,CD45RA High CD25 Low (%),[3]; REP day 3,16.11%
same,CD45RA Low CD25 High (%),[3]; REP day 3,27.34%
same,CD45RA High CD25 Low (%),[3]; REP day 4,16.03%
same,CD45RA Low CD25 High (%),[3]; REP day 4,30.19%
same,CD45RA High CD25 Low (%),[3]; REP day 5,8.87%
same,CD45RA Low CD25 High (%),[3]; REP day 5,43.80%
same,CD45RA High CD25 Low (%),[3]; REP day 7,9.00%
same,CD45RA Low CD25 High (%),[3]; REP day 7,21.79%
